Each structure is given as a SMILES string. Several values for one entry are separate records, joined by “and”; a condition that tells them apart may be missing. Equal values may be shown once. Numbers after ± are expanded uncertainties.

The data set is described as follows: activity coefficient (dimensionless); of the first substance listed, at infinite dilution; xn = mol fraction of the nth substance listed. The following applies: Liquid, Chromatography, x1 = 0.

Turning to `CCCCCC(=O)OC` [methyl hexanoate] + CCCCCC[n+]1ccn(C)c1.O=S(=O)([N-]S(=O)(=O)C(F)(F)F)C(F)(F)F, the activity coefficient was determined as 1.39 ± 0.09 (343.65 K); 1.35 ± 0.09 (354.15 K); 1.29 ± 0.08 (364.65 K); 1.25 ± 0.08 (375.15 K); 1.2 ± 0.08 (385.65 K).

Consider `CCC(=O)OC` [methyl propanoate] + CCCCCC[n+]1ccn(C)c1.O=S(=O)([N-]S(=O)(=O)C(F)(F)F)C(F)(F)F, for which the activity coefficient is, setting by setting: (322.75 K) 0.681 ± 0.046; (333.25 K) 0.683 ± 0.046; (343.65 K) 0.685 ± 0.046; (354.15 K) 0.688 ± 0.046.

Regarding `CCCCCCCCCCC` [undecane] + CCCCCC[n+]1ccn(C)c1.O=S(=O)([N-]S(=O)(=O)C(F)(F)F)C(F)(F)F, the activity coefficient (312.35 K) came out at 37.3 ± 2.5; the activity coefficient (322.85 K) was found to be 34.1 ± 2.3; the activity coefficient (333.35 K) was 30 ± 2; the activity coefficient (343.75 K) was determined as 27.7 ± 1.9; the activity coefficient (354.25 K) came to 26 ± 1.8.

For the molecule `C1CCCCC1` [cyclohexane] + CCCCCC[n+]1ccn(C)c1.O=S(=O)([N-]S(=O)(=O)C(F)(F)F)C(F)(F)F, the activity coefficient (300.95 K) worked out at 5.65 ± 0.39, the activity coefficient (312.25 K) came out at 5.23 ± 0.36, the activity coefficient (322.85 K) was 4.9 ± 0.33 and the activity coefficient (333.25 K) worked out at 4.59 ± 0.31.

Regarding `CCC(C)O` (stereo unspecified) [butan-2-ol] + CCCCCC[n+]1ccn(C)c1.O=S(=O)([N-]S(=O)(=O)C(F)(F)F)C(F)(F)F, the activity coefficient turned out to be 2.14 ± 0.15 (301.65 K), 1.9 ± 0.13 (312.15 K), 1.66 ± 0.11 (322.85 K) and 1.47 ± 0.1 (333.35 K).

Turning to `Cc1ccccc1` [toluene] + CCCCCC[n+]1ccn(C)c1.O=S(=O)([N-]S(=O)(=O)C(F)(F)F)C(F)(F)F, the activity coefficient runs as follows: (307.05 K) 1.04 ± 0.07; (312.35 K) 1.04 ± 0.07; (322.85 K) 1.06 ± 0.07; (333.35 K) 1.06 ± 0.07; (343.85 K) 1.08 ± 0.07.

Take `CO` [methanol] + CCCCCC[n+]1ccn(C)c1.O=S(=O)([N-]S(=O)(=O)C(F)(F)F)C(F)(F)F: the activity coefficient is 1.46 ± 0.1 (301.95 K); 1.34 ± 0.09 (312.45 K); 1.22 ± 0.08 (323.05 K); 1.1 ± 0.07 (333.45 K); 0.99 ± 0.06 (343.95 K); 0.93 ± 0.06 (354.45 K).

Take `C=CCCCCCC` [oct-1-ene] + CCCCCC[n+]1ccn(C)c1.O=S(=O)([N-]S(=O)(=O)C(F)(F)F)C(F)(F)F: the activity coefficient is 8.83 ± 0.6 (301.95 K); 8.43 ± 0.58 (312.45 K); 8.08 ± 0.55 (322.95 K); 7.66 ± 0.52 (333.45 K); 7.37 ± 0.5 (343.95 K); 7.16 ± 0.49 (354.35 K).

In the case of `CCCCCO` [pentan-1-ol] + CCCCCC[n+]1ccn(C)c1.O=S(=O)([N-]S(=O)(=O)C(F)(F)F)C(F)(F)F, the activity coefficient amounted to 2.18 ± 0.15 (333.25 K); 2 ± 0.14 (343.75 K); 1.8 ± 0.12 (354.05 K); 1.63 ± 0.11 (364.55 K); 1.51 ± 0.1 (374.95 K).

On to `C=CCCC` [1-pentene] + CCCCCC[n+]1ccn(C)c1.O=S(=O)([N-]S(=O)(=O)C(F)(F)F)C(F)(F)F, for which the activity coefficient came out at 3.63 ± 0.23 (301.95 K), 3.54 ± 0.23 (312.45 K), 3.43 ± 0.24 (322.95 K) and 3.39 ± 0.25 (333.45 K).

On to `CC(C)O` [propan-2-ol] + CCCCCC[n+]1ccn(C)c1.O=S(=O)([N-]S(=O)(=O)C(F)(F)F)C(F)(F)F, for which the activity coefficient is, setting by setting: (301.65 K) 1.93 ± 0.13; (312.25 K) 1.68 ± 0.11; (322.75 K) 1.49 ± 0.1; (333.25 K) 1.33 ± 0.09; (343.75 K) 1.21 ± 0.08; (354.05 K) 1.09 ± 0.07.

On to `c1ccccc1` [benzene] + CCCCCC[n+]1ccn(C)c1.O=S(=O)([N-]S(=O)(=O)C(F)(F)F)C(F)(F)F, for which the activity coefficient is, setting by setting: (301.65 K) 0.779 and 0.778; (306.95 K) 0.776 ± 0.051; (312.25 K) 0.776 ± 0.051; (322.75 K) 0.777 ± 0.051; (322.85 K) 0.773 ± 0.051; (333.25 K) 0.777 and 0.774. For the same molecule, the activity coefficient (343.75 K) was 0.769 ± 0.05.

Regarding `CC(C)(C)O` [2-methylpropan-2-ol] + CCCCCC[n+]1ccn(C)c1.O=S(=O)([N-]S(=O)(=O)C(F)(F)F)C(F)(F)F, the activity coefficient runs as follows: (301.65 K) 1.7 ± 0.11; (312.15 K) 1.51 ± 0.1; (322.85 K) 1.34 ± 0.09; (333.35 K) 1.21 ± 0.08.

For `CCCCC=O` [pentanal] + CCCCCC[n+]1ccn(C)c1.O=S(=O)([N-]S(=O)(=O)C(F)(F)F)C(F)(F)F, the activity coefficient is, setting by setting: (301.75 K) 1.11 ± 0.07; (312.25 K) 1.1 ± 0.07; (322.85 K) 1.08 ± 0.068; (333.35 K) 1.06 ± 0.067; (343.55 K) 1.05 ± 0.066; (354.05 K) 1.03 ± 0.065. The activity coefficient (364.45 K) worked out at 1.01 ± 0.063 and the activity coefficient (374.95 K) was found to be 0.99 ± 0.062.

`ClC(Cl)Cl` [trichloromethane] + CCCCCC[n+]1ccn(C)c1.O=S(=O)([N-]S(=O)(=O)C(F)(F)F)C(F)(F)F: the activity coefficient is 0.67 ± 0.045 (301.75 K); 0.67 ± 0.045 (301.85 K); 0.68 ± 0.046 (312.25 K); 0.68 ± 0.046 (312.45 K); 0.69 ± 0.046 (322.85 K); 0.7 ± 0.047 (323.05 K). Moreover, the activity coefficient was found to be 0.71 ± 0.047 (333.45 K) and 0.72 ± 0.048 (343.95 K).

The record behind these values is the NIST ThermoML archive (doi:10.1021/je0503554).
